# According to ChEMBL document CHEMBL4610046, “Diacyl disulfides as the precursors for hydrogen persulfide (H2S2)” (Bioorg Med Chem Lett, 2020):
# Calls of active or inactive are those of the source. No cut-off for these calls is given here.
# Legend:
# [1] = Stability of compound assessed as compound decomposition at 4 degree C measured after 3 weeks; type: physicochemical; settings: 504 h
# [2] = Stability of compound in DCM incubated at room temperature; type: physicochemical
# [3] = Stability of compound in THF incubated at room temperature; type: physicochemical
# PC-3 [4] = assay: Induction of H2S generation in human PC3 cells at 100 uM measured after 30 mins by DSP-3 probe based fluorescence assay; type: functional, cell-based
# PC-3 [5] = assay: Induction of H2S generation in human PC3 cells at 100 uM pretreated with thiol blocking reagent NEM for 30 mins followed by lysine treatment for 20 mins and subsequent compound treatment after 30 mins by DSP-3 probe based fluorescence assay; type: functional, cell-based
# [6] = Cysteine reactivity in human PC3 cells under physiological conditions; type: ADME, cell-based; settings: pc-3
# PC-3 [7] = assay: Induction of H2S2 generation in human PC3 cells at 100 uM measured after 30 mins by DSP-3 probe based fluorescence assay; type: functional, cell-based
# [8] = GSH reactivity in human PC3 cells under physiological conditions; type: ADME, cell-based; settings: pc-3
# PC-3 [9] = assay: Induction of H2S2 generation in human PC3 cells at 100 uM pretreated with thiol blocking reagent NEM for 30 mins followed by lysine treatment for 20 mins and subsequent compound treatment after 30 mins by DSP-3 probe based fluorescence assay; type: functional, cell-based
# [10] = Induction of DPPH reduction by H2S2 generated from parent compound by UV spectrometry; parameters: scale not given: the % may be the effect or the level left
# HeLa [11] = assay: Induction of H2S generation in human HeLa cells at 100 uM measured after 30 mins by DSP-3 probe based fluorescence assay; type: functional, cell-based
# HeLa [12] = assay: Induction of H2S2 generation in human HeLa cells at 100 uM pretreated with thiol blocking reagent NEM for 30 mins followed by lysine treatment for 20 mins and subsequent compound treatment after 30 mins by DSP-3 probe based fluorescence assay; type: functional, cell-based
# HeLa [13] = assay: Induction of H2S2 generation in human HeLa cells at 100 uM measured after 30 mins by DSP-3 probe based fluorescence assay; type: functional, cell-based
# HeLa [14] = assay: Induction of H2S generation in human HeLa cells at 100 uM pretreated with thiol blocking reagent NEM for 30 mins followed by lysine treatment for 20 mins and subsequent compound treatment after 30 mins by DSP-3 probe based fluorescence assay; type: functional, cell-based
# [15] = Drug metabolism in PBS buffer assessed as hydrolysis at pH 7.4 in presence of 25 uM CTAB by DSP-3 probe based fluorescence assay; type: physicochemical
Structure (SMILES),Stability [1],Stability [2],Stability [3],Activity [10] [%],further results
CC(=O)SSC(C)=O,Stable,Stable,Stable,40,Activity (PC-3 [4]): Active; Activity (PC-3 [5]): Active; Drug metabolism [6]: Active; Activity (PC-3 [7]): Active; Drug metabolism [8]: Active; Activity (PC-3 [9]): Active; Activity (HeLa [11]): Active; Activity (HeLa [12]): Active; Activity (HeLa [13]): Active; Activity (HeLa [14]): Active
CC(C)(C(=O)SSC(=O)C(C)(C)c1ccccc1)c1ccccc1,Stable,Stable,Stable,,Drug metabolism [15]: Metabolite_Notdetected
CC[Si](CC)(CC)OC(SSC(O[Si](CC)(CC)CC)C(C)C)C(C)C (centres undefined),,,,30,
CC[Si](CC)(CC)OC(S)C(C)C (centres undefined),,,,15,
O=C(Cc1ccccc1)SSC(=O)Cc1ccccc1,Stable,Stable,Stable,,
NCCN,,,,40,
